Tests used:
Mino cells = assay: Antiproliferative effect, MTS cell viability assay, Mino cells; assay type: cell-based; settings: Homo sapiens, MINO, Mino mantle cell lymphoma cells; read-out: IC50 (anti-proliferation) Mino cells
Procedure, shortened: (§1)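 Readout was MTS-derived formazan absorbance (490 nm) reflecting metabolically active cells. Treatment lasted 72 h over a 0–10 μM range (0.001, 0.01, 0.1, 1, 10 μM) in JeKo-1 and Mino B-cell malignancy cells.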

JeKo-1 cells = assay: Antiproliferative effect, MTS cell viability assay, JeKo-1 cells; assay type: cell-based; settings: Homo sapiens; JeKo-1 mantle cell lymphoma cells; read-out: IC50 (anti-proliferation) JeKO-1 cells
Procedure, shortened: as §1

BTK [1] = molecular target: T1, BTK (Homo sapiens, UniProt Q06187); assay: BTK degradation, DC50 and Dmax of Table 1 (cell line not given); assay type: cell-based; design: endogenous in cells; settings: for DC50: concentration giving 50% reduction of BTK expression level
BTK [2] = molecular target: T1, BTK; assay: Degradation of BTK protein in Namalwa cells (Western blot; DC50, Dmax); settings: Namalwa B lymphocyte cells, Western blot; for degradation of BTK protein: various concentrations, 24 hours

T1 sequence (Q06187 whole entry): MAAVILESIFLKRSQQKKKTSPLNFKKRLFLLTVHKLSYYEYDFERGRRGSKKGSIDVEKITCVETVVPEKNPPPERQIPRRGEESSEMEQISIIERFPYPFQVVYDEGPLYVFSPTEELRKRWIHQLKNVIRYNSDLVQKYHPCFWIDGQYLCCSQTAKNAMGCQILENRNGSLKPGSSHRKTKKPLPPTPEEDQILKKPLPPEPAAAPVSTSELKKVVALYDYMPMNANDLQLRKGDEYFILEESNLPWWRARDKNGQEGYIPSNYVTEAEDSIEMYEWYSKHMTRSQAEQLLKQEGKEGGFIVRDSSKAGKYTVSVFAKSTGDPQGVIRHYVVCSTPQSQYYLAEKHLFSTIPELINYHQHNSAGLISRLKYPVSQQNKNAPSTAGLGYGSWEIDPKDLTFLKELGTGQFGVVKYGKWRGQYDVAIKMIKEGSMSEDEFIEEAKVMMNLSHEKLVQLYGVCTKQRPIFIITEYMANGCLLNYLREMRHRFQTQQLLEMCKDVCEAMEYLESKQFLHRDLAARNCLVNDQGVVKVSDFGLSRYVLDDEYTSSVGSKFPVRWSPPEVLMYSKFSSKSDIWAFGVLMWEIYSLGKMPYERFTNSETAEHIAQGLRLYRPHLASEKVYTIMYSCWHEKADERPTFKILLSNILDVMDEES

Dmax (BTK [1]) [%]	DC50 (BTK [1]) [nM]	degradation of BTK protein at 10^−6 M (BTK [2])	degradation of BTK protein (BTK [2])	Compound	IC50 (Mino cells) [nM]	IC50 (JeKo-1 cells) [nM]
> 90	10 to 50	degradation	dose-dependent degradation	Nc1ncnc2c1c(-c1ccc(Oc3ccccc3)cc1)nn2[C@@H]1CCCN(CC2CCN(C(=O)N3CCC(CN4CCN(c5ccc6c(c5)C(=O)N(C5CCC(=O)NC5=O)C6=O)CC4)CC3)CC2)C1 (stereo partly drawn) [Compound 31, 5-(4-((1-(4-(((R)-3-(4-amino-3-(4-phenoxyphenyl)-1H-pyrazolo(3,4-d)pyrimidin-1-yl)piperidin-1-yl)methyl)piperidine-1-carbonyl)piperidin-4-yl)methyl)piperazin-1-yl)-2-(2,6-dioxopiperidin-3-yl)isoindoline-1,3-dione]	1000 to 10000	1000 to 10000
> 90	> 50	degradation	dose-dependent degradation	Nc1ncnc2c1c(-c1ccc(Oc3ccccc3)cc1)nn2[C@@H]1CCCN(CC2CCN(C(=O)N3CCC(CCN4CCN(c5ccc6c(c5)C(=O)N(C5CCC(=O)NC5=O)C6=O)CC4)CC3)CC2)C1 (stereo partly drawn) [Compound 33, 5-(4-(2-(1-(4-(((R)-3-(4-amino-3-(4-phenoxyphenyl)-1H-pyrazolo(3,4-d)pyrimidin-1-yl)piperidin-1-yl)methyl)piperidine-1-carbonyl)piperidin-4-yl)ethyl)piperazin-1-yl)-2-(2,6-dioxopiperidin-3-yl)isoindoline-1,3-dione]	1000 to 10000	1000 to 10000
> 90	< 10	degradation	dose-dependent degradation	Nc1ncnc2c1c(-c1ccc(Oc3ccccc3)cc1)nn2C1CCN(CC2CCN(C(=O)N3CCN(c4ccc5c(c4)C(=O)N(C4CCC(=O)NC4=O)C5=O)CC3)CC2)CC1 (stereo not drawn) [Compound 35, 5-(4-(4-((4-(4-amino-3-(4-phenoxyphenyl)-1H-pyrazolo(3,4-d)pyrimidin-1-yl)piperidin-1-yl)methyl)piperidine-1-carbonyl)piperazin-1-yl)-2-(2,6-dioxopiperidin-3-yl)isoindoline-1,3-dione]	< 1000	1000 to 10000
> 90	10 to 50	degradation	dose-dependent degradation	Nc1ncnc2c1c(-c1ccc(Oc3ccccc3)cc1)nn2C1CCN(CC2CCN(C(=O)N3CCC(N4CCN(c5ccc6c(c5)C(=O)N(C5CCC(=O)NC5=O)C6=O)CC4)CC3)CC2)CC1 (stereo not drawn) [Compound 37, 5-(4-(1-(4-((4-(4-amino-3-(4-phenoxyphenyl)-1H-pyrazolo(3,4-d)pyrimidin-1-yl)piperidin-1-yl)methyl)piperidine-1-carbonyl)piperidin-4-yl)piperazin-1-yl)-2-(2,6-dioxopiperidin-3-yl)isoindoline-1,3-dione]	< 1000	1000 to 10000
> 90	> 50	degradation	dose-dependent degradation	Nc1ncnc2c1c(-c1ccc(Oc3ccccc3)cc1)nn2C1CCN(CC2CCN(C(=O)N3CCC(C4CCN(c5ccc6c(c5)C(=O)N(C5CCC(=O)NC5=O)C6=O)CC4)CC3)CC2)CC1 (stereo not drawn) [Compound 39, 5-(1′-(4-((4-(4-amino-3-(4-phenoxyphenyl)-1H-pyrazolo(3,4-d)pyrimidin-1-yl)piperidin-1-yl)methyl)piperidine-1-carbonyl)-(4,4′-bipiperidin)-1-yl)-2-(2,6-dioxopiperidin-3-yl)isoindoline-1,3-dione]	1000 to 10000	> 10000

— patent publication US12139492B2 (Endotarget Inc., priority 2021, dated 2024)
